Test results: ChEMBL document CHEMBL3045039, “Computational studies of new 1,4-dihydropyridines containing 4-(5)-chloro-2-ethyl-5-(4)-imidazolyl substituent: QSAR and docking” (Med Chem Res, 2010)

The compounds below were run against Voltage-dependent L-type calcium channel subunit alpha-1C (Cavia porcellus, UniProt O35505) (assay: Inhibition of calcium channel in Cavia porcellus (guinea pig) ileum assessed as inhibition of KCl-induced contraction).
Format: tissue-based

Sequence of Voltage-dependent L-type calcium channel subunit alpha-1C (O35505 whole entry): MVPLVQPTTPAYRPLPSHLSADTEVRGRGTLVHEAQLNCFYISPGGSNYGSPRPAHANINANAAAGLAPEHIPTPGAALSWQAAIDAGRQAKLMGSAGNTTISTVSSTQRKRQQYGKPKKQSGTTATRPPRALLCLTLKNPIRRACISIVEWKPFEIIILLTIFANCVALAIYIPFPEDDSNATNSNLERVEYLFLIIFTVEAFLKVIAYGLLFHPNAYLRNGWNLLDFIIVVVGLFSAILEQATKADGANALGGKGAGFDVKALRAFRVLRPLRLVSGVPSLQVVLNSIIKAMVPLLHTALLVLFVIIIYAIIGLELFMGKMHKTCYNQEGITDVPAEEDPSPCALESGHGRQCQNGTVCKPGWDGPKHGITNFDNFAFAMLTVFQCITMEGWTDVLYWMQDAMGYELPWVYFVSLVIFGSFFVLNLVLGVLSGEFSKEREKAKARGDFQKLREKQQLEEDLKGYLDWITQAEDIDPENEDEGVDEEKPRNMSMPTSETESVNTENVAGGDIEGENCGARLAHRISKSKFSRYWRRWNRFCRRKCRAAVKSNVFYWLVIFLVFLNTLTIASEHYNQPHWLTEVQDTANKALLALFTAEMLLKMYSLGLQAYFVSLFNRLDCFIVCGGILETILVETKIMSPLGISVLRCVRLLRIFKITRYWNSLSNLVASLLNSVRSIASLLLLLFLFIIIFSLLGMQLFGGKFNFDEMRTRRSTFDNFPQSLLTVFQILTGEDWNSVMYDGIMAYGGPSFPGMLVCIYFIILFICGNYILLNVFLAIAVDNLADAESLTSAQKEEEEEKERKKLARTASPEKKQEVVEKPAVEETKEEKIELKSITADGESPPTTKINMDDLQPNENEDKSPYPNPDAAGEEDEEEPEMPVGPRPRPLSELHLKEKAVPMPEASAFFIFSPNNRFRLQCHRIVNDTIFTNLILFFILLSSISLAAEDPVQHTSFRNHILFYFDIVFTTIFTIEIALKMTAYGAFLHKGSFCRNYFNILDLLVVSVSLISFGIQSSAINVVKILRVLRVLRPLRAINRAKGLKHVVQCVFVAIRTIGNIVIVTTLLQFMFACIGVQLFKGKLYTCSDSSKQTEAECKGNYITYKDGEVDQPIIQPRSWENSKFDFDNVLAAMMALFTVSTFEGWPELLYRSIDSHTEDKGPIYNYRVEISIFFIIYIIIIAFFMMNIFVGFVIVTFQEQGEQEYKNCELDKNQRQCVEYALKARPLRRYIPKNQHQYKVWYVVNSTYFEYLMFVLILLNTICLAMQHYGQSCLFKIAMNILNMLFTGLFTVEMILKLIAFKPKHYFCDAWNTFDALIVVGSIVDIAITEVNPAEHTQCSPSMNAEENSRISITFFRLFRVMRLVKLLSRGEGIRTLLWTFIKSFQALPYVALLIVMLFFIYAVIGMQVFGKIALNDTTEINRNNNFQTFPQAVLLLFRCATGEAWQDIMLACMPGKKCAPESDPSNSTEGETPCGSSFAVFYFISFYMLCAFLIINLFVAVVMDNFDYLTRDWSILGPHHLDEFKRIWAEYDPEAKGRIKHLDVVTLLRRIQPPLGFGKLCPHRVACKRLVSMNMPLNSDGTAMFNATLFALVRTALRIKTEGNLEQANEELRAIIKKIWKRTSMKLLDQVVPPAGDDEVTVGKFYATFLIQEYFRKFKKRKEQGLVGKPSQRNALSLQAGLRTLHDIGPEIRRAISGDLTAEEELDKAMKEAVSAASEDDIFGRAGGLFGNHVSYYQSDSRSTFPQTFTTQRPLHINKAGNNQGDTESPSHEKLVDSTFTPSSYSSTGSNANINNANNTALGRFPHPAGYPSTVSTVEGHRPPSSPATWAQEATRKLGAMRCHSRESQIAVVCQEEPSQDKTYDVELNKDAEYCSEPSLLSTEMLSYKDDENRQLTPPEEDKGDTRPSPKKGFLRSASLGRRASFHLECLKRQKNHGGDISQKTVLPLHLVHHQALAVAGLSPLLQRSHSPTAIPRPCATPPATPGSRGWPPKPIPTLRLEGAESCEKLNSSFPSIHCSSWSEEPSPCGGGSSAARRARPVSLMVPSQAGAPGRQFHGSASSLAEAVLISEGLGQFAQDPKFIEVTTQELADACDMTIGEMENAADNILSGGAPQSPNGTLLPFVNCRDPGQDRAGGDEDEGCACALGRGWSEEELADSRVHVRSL

Row | IC50 [nM] | SMILES
1 | 0.488 | CCc1nc(Cl)c(C2C(C(=O)OC)=C(C)NC(C)=C2C(=O)OC(C)C)[nH]1 (stereo not drawn)
2 | 2.02 | CCOC(=O)C1=C(C)NC(C)=C(C(=O)OC)C1c1[nH]c(CC)nc1Cl (stereo not drawn)
3 | 0.158 | CCOC(=O)C1=C(C)NC(C)=C(C(=O)OCC)C1c1[nH]c(CC)nc1Cl
4 | 0.146 | CCCOC(=O)C1=C(C)NC(C)=C(C(=O)OC)C1c1[nH]c(CC)nc1Cl (stereo not drawn)
5 | 0.564 | CCOC(=O)C1=C(C)NC(C)=C(C(=O)OC(C)C)C1c1[nH]c(CC)nc1Cl (stereo not drawn)
6 | 34.2 | CCc1nc(Cl)c(C2C(C(=O)OC(C)(C)C)=C(C)NC(C)=C2C(=O)OC(C)(C)C)[nH]1
7 | 99.8 | CCOC(=O)C1=C(C)NC(C)=C(C(=O)OC(C)(C)C)C1c1[nH]c(CC)nc1Cl (stereo not drawn)
8 | 0.596 | CCc1nc(Cl)c(C2C(C(=O)OC)=C(C)NC(C)=C2C(=O)OC)[nH]1
9 | 0.543 | CCCOC(=O)C1=C(C)NC(C)=C(C(=O)OCC)C1c1[nH]c(CC)nc1Cl (stereo not drawn)
10 | 0.748 | CCc1nc(Cl)c(C2C(C(=O)OC(C)C)=C(C)NC(C)=C2C(=O)OC(C)C)[nH]1
11 | 50.8 | CCc1nc(Cl)c(C2C(C(=O)OC)=C(C)NC(C)=C2C(=O)OC(C)(C)C)[nH]1 (stereo not drawn)

Continued, compound first:

Row | SMILES | IC50 [nM]
12 | CCc1nc(Cl)c(C2C(C(=O)OC)=C(C)NC(C)=C2C(=O)OCc2ccccc2)[nH]1 (stereo not drawn) | 1.75
13 | CCCOC(=O)C1=C(C)NC(C)=C(C(=O)OCCC)C1c1[nH]c(CC)nc1Cl | 0.13
14 | CCOC(=O)C1=C(C)NC(C)=C(C(=O)OCCc2ccccc2)C1c1nc(CC)[nH]c1Cl (stereo not drawn) | 0.0457
15 | CCc1nc(C2C(C(=O)OC)=C(C)NC(C)=C2C(=O)OCCc2ccccc2)c(Cl)[nH]1 (stereo not drawn) | 0.0309
16 | CCc1nc(Cl)c(C2C(C(=O)OCC(C)C)=C(C)NC(C)=C2C(=O)OCC(C)C)[nH]1 | 2.64
17 | CCc1nc(Cl)c(C2C(C(=O)OC3CCCCC3)=C(C)NC(C)=C2C(=O)OC2CCCCC2)[nH]1 | 0.132
18 | CCc1nc(Cl)c(C2C(C(=O)OC3CCCC3)=C(C)NC(C)=C2C(=O)OC2CCCC2)[nH]1 | 0.212
19 | CCc1nc(C2C(C(=O)OCCc3ccccc3)=C(C)NC(C)=C2C(=O)OCCc2ccccc2)c(Cl)[nH]1 | 0.0437
20 | CCOC(=O)C1=C(C)NC(C)=C(C(=O)OCC2CCCCC2)C1c1[nH]c(CC)nc1Cl (stereo not drawn) | 1.07
21 | CCc1nc(C2C(C(=O)OCc3ccccc3)=C(C)NC(C)=C2C(=O)OCc2ccccc2)c(Cl)[nH]1 | 0.906
22 | CCc1nc(Cl)c(C2C(C(=O)OCCCc3ccccc3)=C(C)NC(C)=C2C(=O)OCCCc2ccccc2)[nH]1 | 0.0668
23 | CCOC(=O)C1=C(C)NC(C)=C(C(=O)OCc2ccccc2)C1c1[nH]c(CC)nc1Cl (stereo not drawn) | 2.66
